Counter-ions that a name gives are not always drawn.
The compounds below were run against IRAK-4 (Homo sapiens (Human), UniProt Q9NWZ3) (assay: In vitro IRAK-4 kinase assay). Conditions: purified recombinant IRAK-4, 50 uM ATP, 33P peptide phosphorylation.
Chain of IRAK-4 (Q9NWZ3 whole entry, species assumed): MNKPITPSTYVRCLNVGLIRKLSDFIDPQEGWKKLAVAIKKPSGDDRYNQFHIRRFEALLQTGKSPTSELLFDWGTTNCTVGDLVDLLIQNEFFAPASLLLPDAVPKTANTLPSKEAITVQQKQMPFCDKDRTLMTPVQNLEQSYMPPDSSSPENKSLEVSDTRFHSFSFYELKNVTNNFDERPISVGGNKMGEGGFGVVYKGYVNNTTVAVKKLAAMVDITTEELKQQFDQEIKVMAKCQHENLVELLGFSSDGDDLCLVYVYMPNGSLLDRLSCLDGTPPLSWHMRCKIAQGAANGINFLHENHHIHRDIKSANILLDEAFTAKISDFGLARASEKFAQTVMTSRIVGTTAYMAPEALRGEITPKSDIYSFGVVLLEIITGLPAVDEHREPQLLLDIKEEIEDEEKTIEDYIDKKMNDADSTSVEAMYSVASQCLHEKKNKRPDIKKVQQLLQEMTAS
Format: biochemical
Method: Purified recombinant IRAK-4 protein was incubated with 250 uM synthetic peptide ([…]) in 30 ul of kinase buffer including (20 mM MOPS pH7.2, 25 mM beta glycerol phosphate, 5 mM EGTA, 1 mM sodium orthovanadate, 1 mM DTT, 50 uM ATP, 20 mM MgCl2, 10 uCi γ-^33P, 0.1% BSA) for the indicated time. For purified recombinant IRAK-1 protein kinase assay, 50 uM ATP was used. A 25 ul aliquot of the reaction mixture was transferred on to p81 phosphocellulose squares (Upstate Biotechnology, Lake Placid, N.Y.). The assay squares were washed three times with 0.75% phosphoric acid and once with acetone. Enzyme activity was measured by determining the bound radioactivity by liquid scintillation counting.
“2-(cis-2-Amino-cyclohexylamino)-thieno[3,2-d]pyrimidine-7-carboxylic acid quinolin-8-ylamide [Example 22]” gave an IC50 of 0.028 µM.
For “2-(cis-2-amino-cyclohexylamino)-thieno[3,2-d]pyrimidine-7-carboxylic acid (5,6-dimethoxy-pyridin-2-yl)-amide [Example 27]”, the IC50 was 0.031 µM.
Work on `CNCC1CCN(c2ccc(Cl)cc2NC(=O)c2csc3cncnc23)CC1` [Example 8, Thieno[3,2-d]pyrimidine-7-carboxylic acid [5-chloro-2-(4-methylaminomethyl-piperidin-1-yl)-phenyl]-amide] yielded an IC50 of 0.008 µM.
In the case of `CC(O)CCOc1cc2ncccc2cc1NC(=O)c1csc2cncnc12` (stereo not drawn) [Example 28], the IC50 is reported as 0.033 µM.
Work on `COc1cnc2c(C(=O)Nc3cc(Cl)ccc3N3CCC(CO)CC3)cnn2c1` [Example 29] yielded an IC50 of 0.033 µM.
`NCC1CCN(c2ccc(Cl)cc2NC(=O)c2cnn3cccnc23)CC1` [Example 31, Pyrazolo[1,{tildeover (5)}alpha] pyrimidine-3-carboxylic acid [2-(4-aminomethyl-piperidin-1-yl)-5-chloro-phenyl]-amide] was tested, and the IC50 was 0.037 µM.
`O=C(Nc1cc2cccnc2cc1OC1CCNCC1)c1cnn2cccnc12` [Example 32, Pyrazolo[1,5-alpha]pyrimidine-3-carboxylic acid [7-(piperidin-4-yloxy)-quinolin-6-yl]-amide hydrochloride] showed an IC50 of 0.04 µM.
In the case of `COc1cc2ncccc2cc1NC(=O)c1cnn2cccnc12` [Example 33, Pyrazolo[1,{tildeover (5)}alpha] pyrimidine-3-carboxylic acid (7-methoxy-quinolin-6-yl)-amide], the IC50 is reported as 0.043 µM.
`Cc1cc2cc(-c3ccc(CO)cc3)c(NC(=O)c3cnn4cccnc34)cc2[nH]1` [Example 36, Pyrazolo[1,5-alpha]pyrimidine-3-carboxylic acid [5-(4-hydroxymethyl-phenyl)-2-methyl-1H-indol-6-yl]-amide] showed an IC50 of 0.052 µM.
Work on `O=C(Nc1cc(Cl)ccc1N1CCC(CO)CC1)c1cnn2cccnc12` [Example 42, Pyrazolo[1,5-alpha]pyrimidine-3-carboxylic acid [5-chloro-2-(4-hydroxymethyl-piperidin-1-yl)-phenyl]-amide] yielded an IC50 of 0.072 µM.
For `NCc1ccc(-c2ccc(Cl)cc2NC(=O)c2cnn3cccnc23)cc1` [Example 46, Pyrazolo[1,{tildeover (5)}alpha] pyrimidine-3-carboxylic acid (4′-aminomethyl-4-chloro-biphenyl-2-yl)-amide], the IC50 was 0.081 µM.
Compound `O=C1Cc2cc(N3CCCCC3)c(NC(=O)c3cnn4cccnc34)cc2N1` [Example 48, Pyrazolo[1,5-alpha]pyrimidine-3-carboxylic acid (2-oxo-5-piperidin-1-yl-2,3-dihydro-1H-indol-6-yl)-amide] has an IC50 of 0.098 µM.
Compound `COc1cc2ncccc2cc1NC(=O)c1csc2cnc(NCCCN)nc12` [Example 50, 2-(3-Amino-propylamino)-thieno[3,2-d]pyrimidine-7-carboxylic acid (7-methoxy-quinolin-6-yl)-amide] has an IC50 of 0.101 µM.
Work on `NC(=O)c1cnc2c(C(=O)Nc3cc(Cl)ccc3OC3CCC(O)CC3)cnn2c1` (stereo not drawn) [Example 52, Pyrazolo[1,5-alpha]pyrimidine-3,6-dicarboxylic acid 6-amide-3-{[5-chloro-2-(4-hydroxy-cyclohexyloxy)-phenyl]-amide}] yielded an IC50 of 0.107 µM.
Work on `O=C(Nc1cc2cccnc2cc1OC1CCNCC1)c1csc2cncnc12` [Example 56, Thieno[3,2-d]pyrimidine-7-carboxylic acid [7-(piperidin-4-yloxy)-quinolin-6-yl]-amide hydrochloride] yielded an IC50 of 0.125 µM.
In the case of `COc1cc2ncccc2cc1NC(=O)c1csc2cnc(N(CCO)C(C)C)nc12` [Example 57, 2-[(2-Hydroxy-ethyl)-isopropyl-amino]-thieno[3,2-d]pyrimidine-7-carboxylic acid (7-methoxy-quinolin-6-yl)-amide], the IC50 is reported as 0.127 µM.
`O=C(Nc1cc2cccnc2cc1OCCCO)c1csc2cncnc12` [Example 58, Thieno[3,2-d]pyrimidine-7-carboxylic acid [7-(3-hydroxy-propoxy)-quinolin-6-yl]-amide] gave an IC50 of 0.131 µM.
Work on `NCC1CCN(c2c(N)cccc2NC(=O)c2cnn3cccnc23)CC1` [Example 59, Pyrazolo[1,5-alpha]pyrimidine-3-carboxylic acid [3-amino-2-(4-aminomethyl-piperidin-1-yl)-phenyl]-amide] yielded an IC50 of 0.133 µM.
`O=C(Nc1cc(Cl)ccc1N1CCC(O)CC1)c1cnn2cccnc12` [Example 60, Pyrazolo[1,5-alpha]pyrimidine-3-carboxylic acid [5-chloro-2-(4-hydroxy-piperidin-1-yl)-phenyl]-amide] showed an IC50 of 0.136 µM.
With `O=C(Nc1cc(Cl)ccc1OC1CCC(O)CC1)c1cnn2cc(Br)cnc12` (stereo not drawn) [Example 61, 6-Bromo-pyrazolo[1,5-alpha]pyrimidine-3-carboxylic acid [5-chloro-2-(4-hydroxy-cyclohexyloxy)-phenyl]-amide] the IC50 was 0.137 µM.
Compound `Nc1cccc(NC(=O)c2cnn3cccnc23)c1N1CCCCC1` [Example 63, Pyrazolo[1,5-alpha]pyrimidine-3-carboxylic acid (3-amino-2-piperidin-1-yl-phenyl)-amide] has an IC50 of 0.156 µM.
`O=C(Nc1cc2ccccc2cc1OC1CCC(O)C1)c1cnn2cccnc12` (stereo not drawn) [Example 65, Pyrazolo[1,5-alpha]pyrimidine-3-carboxylic acid [3-(3-hydroxy-cyclopentyloxy)-naphthalen-2-yl]-amide] was tested, and the IC50 was 0.177 µM.
`O=C(Nc1cc(CO)ccc1N1CCCCC1)c1cnn2cccnc12` [Example 66, Pyrazolo[1,5-alpha]pyrimidine-3-carboxylic acid (5-hydroxymethyl-2-piperidin-1-yl-phenyl)-amide] gave an IC50 of 0.199 µM.
`NC(=O)c1cnc2c(C(=O)Nc3cc(Cl)ccc3O[C@H]3CC[C@@H](O)CC3)cnn2c1` [Example 67, Pyrazolo[1,5-alpha]pyrimidine-3,6-dicarboxylic acid 6-amide 3-{[5-chloro-2-(4-hydroxy-cyclohexyloxy)-phenyl]-amide}] gave an IC50 of 0.203 µM.
In the case of `O=C(Nc1cc(Cl)ccc1-c1ccc(CO)cc1)c1cnn2cccnc12` [Example 68, Pyrazolo[1,5-alpha]pyrimidine-3-carboxylic acid (4-chloro-4′-hydroxymethyl-biphenyl-2-yl)-amide], the IC50 is reported as 0.218 µM.
`COc1cc2[nH]ncc2cc1NC(=O)c1cnn2cccnc12` [Example 69, Pyrazolo[1,5-alpha]pyrimidine-3-carboxylic acid (6-methoxy-1H-indazol-5-yl)-amide] gave an IC50 of 0.231 µM.
Work on `NC1CCN(c2ccc(Cl)cc2NC(=O)c2cnn3cccnc23)CC1` [Example 70, Pyrazolo[1,{tildeover (5)}-alpha] pyrimidine-3-carboxylic acid [2-(4-amino-piperidin-1-yl)-5-chloro-phenyl]-amide] yielded an IC50 of 0.251 µM.
For `COc1cnc2c(C(=O)Nc3cc(Cl)ccc3N3CCC(CN)CC3)cnn2c1` [Example 71, 6-Methoxy-pyrazolo[1,5-alpha]pyrimidine-3-carboxylic acid [2-(4-aminomethyl-piperidin-1-yl)-5-chloro-phenyl]-amide], the IC50 was 0.254 µM.
Work on `COc1cc2cc(C)[nH]c2cc1NC(=O)c1cnn2cccnc12` [Example 72, Pyrazolo[1,5-alpha]pyrimidine-3-carboxylic acid (5-methoxy-2-methyl-1H-indol-6-yl)-amide] yielded an IC50 of 0.255 µM.
`COc1cc2ncccc2cc1NC(=O)c1csc2cnc(NCC(C)C)nc12` [Example 73, 2-Isobutylamino-thieno[3,2-d]pyrimidine-7-carboxylic acid (7-methoxy-quinolin-6-yl)-amide] gave an IC50 of 0.271 µM.
With `CC(C)Oc1ccc(Cl)cc1NC(=O)c1csc2cncnc12` [Example 74, Thieno[3,2-d]pyrimidine-7-carboxylic acid (5-chloro-2-isopropoxy-phenyl)-amide] the IC50 was 0.29 µM.
Compound `O=C(Nc1ccc2ncccc2c1)c1csc2cnc(NCCO)nc12` [Example 75, 2-(2-Hydroxy-ethylamino)-thieno[3,2-d]pyrimidine-7-carboxylic acid quinolin-6-ylamide] has an IC50 of 0.3 µM.
With `COc1cnc2c(C(=O)Nc3cc(Cl)ccc3OC3CCC(O)CC3)cnn2c1` (stereo not drawn) [Example 76, 6-Methoxy-pyrazolo[1,5-a]pyrimidine-3-carboxylic acid [5-chloro-2-(4-hydroxy-cyclohexyloxy)-phenyl]-amide] the IC50 was 0.301 µM.
`O=C(Nc1cc(Cl)ccc1OC1CCC(CO)C1)c1cnn2cccnc12` (stereo not drawn) [Example 77, Pyrazolo[1,5-alpha]pyrimidine-3-carboxylic acid [5-chloro-2-(3-hydroxymethyl-cyclopentyloxy)-phenyl]-amide] gave an IC50 of 0.306 µM.
With `O=C(Nc1cc(Cl)ccc1N1CCCC1)c1cnn2cccnc12` [Example 78, Pyrazolo[1,5-alpha]pyrimidine-3-carboxylic acid (5-chloro-2-pyrrolidin-1-yl-phenyl)-amide] the IC50 was 0.312 µM.
`O=C(Nc1cc(Cl)ccc1N1CCCCC1)c1cnn2cccnc12` [Example 79, Pyrazolo[1,5-alpha]pyrimidine-3-carboxylic acid (5-chloro-2-piperidin-1-yl-phenyl)-amide] showed an IC50 of 0.314 µM.
`O=C(Nc1cc2ccccc2cc1OCCCO)c1cnn2cccnc12` [Example 80, Pyrazolo[1,5-alpha]pyrimidine-3-carboxylic acid [3-(3-hydroxy-propoxy)-naphthalen-2-yl]-amide] showed an IC50 of 0.327 µM.
With `COc1cc2ccc(CO)cc2cc1NC(=O)c1cnn2cccnc12` [Example 82, Pyrazolo[1,5-alpha]pyrimidine-3-carboxylic acid (7-hydroxymethyl-3-methoxy-naphthalen-2-yl)-amide] the IC50 was 0.358 µM.
With `O=C(Nc1cc(Cl)ccc1OCCCO)c1cnn2cccnc12` [Example 84, Pyrazolo[1,5-alpha]pyrimidine-3-carboxylic acid [5-chloro-2-(3-hydroxy-propoxy)-phenyl]-amide] the IC50 was 0.43 µM.

From patent publication US9255110B2 (Hoffmann-La Roche Inc., priority 2010, dated 2016)
